Earlier results in patent US6369115B1, “Stabilized powder formulations” (Dura Pharmaceuticals, Inc., priority 2000, dated 2002).

Structure (SMILES): COc1ccc(CC(C)NCC(O)c2ccc(O)c(NC=O)c2)cc1 (centres unmarked) [Formoterol, N-[2-hydroxy-5-[1-hydroxy-2-[[2-(4-methoxyphenyl)-1-methylethyl]amino]ethyl]phenyl]formamide]
- solubility in water: soluble in water

Structure (SMILES): CCC(=O)O[C@]1(C(=O)SCF)[C@H](C)C[C@H]2[C@@H]3C[C@H](F)C4=CC(=O)C=C[C@]4(C)[C@@]3(F)[C@@H](O)C[C@@]21C [fluticasone propionate, (6 alpha, 11 beta, 16 alpha, 17 alpha)-6,9,-difluoro-11-hydroxy-16-methyl-3-oxo-17-(1-oxopropoxy)androsta-1,4-diene-17-carbothioic acid, S-fluoromethyl ester]
- solubility in water: insoluble in water
